Data as given in patent US20240148821A1, “PHARMACEUTICAL USE OF CYCLIC PEPTIDE COMPOUND” (CHUGAI SEIYAKU KABUSHIKI KAISHA, priority 2021, published 2024).
Bridge positions count the residues as written; N and C are the ends. Square brackets hold non-standard residues; d marks the D form. Peptide text beside a SMILES is read from it. * marks the point of attachment. hPhe(3-Cl-4-CF3) = N[C@@H](CCc1ccc(C(F)(F)F)c(Cl)c1)C(=O)O; hPhe(3-F,4-CF3) = N[C@@H](CCc1ccc(C(F)(F)F)c(F)c1)C(=O)O; NMePhe(4-Me) = CN[C@@H](Cc1ccc(C)cc1)C(=O)O; NMeGly(cPent) = CN[C@H](C(=O)O)C1CCCC1; NMe3Pal = CN[C@@H](Cc1cccnc1)C(=O)O; NMeCha = CN[C@@H](CC1CCCCC1)C(=O)O; NMehLeu = CN[C@@H](CCC(C)C)C(=O)O; NMeChg = CN[C@H](C(=O)O)C1CCCCC1; NMeI = CC[C@H](C)[C@H](NC)C(=O)O; N(CH2CH2)2CF2 = FC1(F)CCN(*)CC1; NMeD = CN[C@@H](CC(=O)O)C(=O)O; dNMeD = CN[C@H](CC(=O)O)C(=O)O; NMeL = CN[C@@H](CC(C)C)C(=O)O; NEtAla = CCN[C@@H](C)C(=O)O; NMeV = CN[C@H](C(=O)O)C(C)C; d(β3hA) = C[C@@H](N)CC(=O)O; NMeA = CN[C@@H](C)C(=O)O; NMeAib = CNC(C)(C)C(=O)O; Piperidide = C1CCN(*)CC1; dNMeA = CN[C@H](C)C(=O)O; Ac5c = NC1(C(=O)O)CCCC1; Aze = O=C(O)[C@@H]1CCN1; Sar = CNCC(=O)O

How the values were obtained:
[1] = target: protein-protein interaction between Kras and SOS1 (biotin-tagged human Kras loaded with GDP, His-tagged human SOS1) (Homo sapiens (Human), UniProt P01116, G12D); assay: Protein-protein interaction inhibition between Kras and SOS1 (KrasG12D-SOS PPI) using AlphaScreen; type: biochemical; conditions: AlphaScreen; biotin-tagged human Kras loaded with GDP, His-tagged human SOS1; read-out: KRAS G12D-SOS PPI IC50;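 further: kras produced in E. coli, Ni-coupled donor beads and streptavidin acceptor beads, excitation 680 nm with emission detected at 520–620 nm via singlet oxygen transfer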
[2] = test system: Human pancreatic cancer cell line AsPC-1 (G12D mutation Kras); assay: AsPC-1 cell growth inhibition (AsPC-1 CGI); type: cell-based; conditions: read-out: AsPC-1 cell growth inhibition, 50% growth inhibitory concentration (IC50 value); 96 hours, CellTiter-Glo, values classified in ranges
Protocol: Test compounds were serially dilated with dimethyl sulfoxide, and 200 nL was then dispensed to a U-bottom 96-well plate using Labcyte Echo. […] The cell suspension was dispensed to a. plate containing a test compound at 100 μL per well and incubated at 37° C. in a 5% carbon dioxide gas incubator. 96 hours later, 80 μL of CellTiter-Glo (Promega) was added to each well and fluorescence was measured.

SMILES	IC50 [1] [nM]	IC50 [2] [nM]
CC[C@H](C)[C@@H]1NC(=O)[C@H](CC(C)C)N(C)C(=O)C[C@@H](C(=O)N(C)C)N(C)C(=O)[C@H](C2CCCC2)N(C)C(=O)[C@H](C(C)C)NC(=O)[C@@H]2CCCN2C(=O)[C@H](CCc2ccc(C(F)(F)F)c(Cl)c2)NC(=O)CN(C)C(=O)[C@H](CC2CCCCC2)N(C)C(=O)[C@@H]2CCN2C(=O)[C@H](C)N(C)C1=O [Compound 1010] ([NMeL]I[NMeA][Aze][NMeCha][Sar][hPhe(3-Cl-4-CF3)]PV[NMeGly(cPent)][NMeD]-NMe2; lactam N-11)	4.3	> 500
CC[C@H](C)[C@@H]1NC(=O)[C@H](C)N(C)C(=O)C[C@@H](C)NC(=O)[C@H](C2CCCC2)N(C)C(=O)C2(CCCC2)NC(=O)[C@@H]2CCCN2C(=O)[C@H](CCc2ccc(C(F)(F)F)c(Cl)c2)NC(=O)[C@@H](C)N(C)C(=O)[C@H](Cc2cccnc2)N(C)C(=O)[C@@H]2CCN2C(=O)[C@H](C)N(C)C1=O [Compound 1011] (cyclo([Ac5c][NMeGly(cPent)][d(β3hA)][NMeA]I[NMeA][Aze][NMe3Pal][dNMeA][hPhe(3-Cl-4-CF3)]P))	38	> 500
CC[C@H](C)[C@@H]1NC(=O)[C@H](CC(C)C)N(C)C(=O)C[C@@H](C(=O)N(C)C)N(C)C(=O)[C@H]([C@@H](C)CC)N(C)C(=O)C2(CCCC2)NC(=O)[C@@H]2CCCN2C(=O)[C@H](CCc2ccc(C(F)(F)F)c(F)c2)NC(=O)CN(C)C(=O)[C@H](Cc2ccc(C)cc2)N(C)C(=O)[C@@H]2CCN2C(=O)[C@H](C)N(C)C1=O [Compound 1017] ([NMeL]I[NMeA][Aze][NMePhe(4-Me)][Sar][hPhe(3-F,4-CF3)]P[Ac5c][NMeI][NMeD]-NMe2; lactam N-11)	0.88	≤ 20
CC[C@H](C)[C@@H]1NC(=O)[C@H](C)N(C)C(=O)C[C@@H](C(=O)N2CCCCC2)N(C)C(=O)[C@H](C(C)C)N(C)C(=O)C2(CCCC2)NC(=O)[C@@H]2CCCN2C(=O)[C@H](CCc2ccc(C(F)(F)F)c(F)c2)NC(=O)CN(C)C(=O)[C@H](CC2CCCCC2)N(C)C(=O)[C@@H]2CCN2C(=O)[C@H](C)N(C)C1=O [Compound 1024] ([NMeA]I[NMeA][Aze][NMeCha][Sar][hPhe(3-F,4-CF3)]P[Ac5c][NMeV][NMeD]-Piperidide; lactam N-11)	1.9	> 500
CC[C@H](C)[C@@H]1NC(=O)[C@H](C)N(C)C(=O)C[C@@H](C(=O)N2CCCCC2)N(C)C(=O)[C@H](C(C)C)N(C)C(=O)C2(CCCC2)NC(=O)[C@@H](CC(=O)N2CCC(F)(F)CC2)N(C)C(=O)[C@H](CCc2ccc(C(F)(F)F)c(Cl)c2)NC(=O)CN(C)C(=O)[C@H](CC2CCCCC2)N(C)C(=O)CN(C)C(=O)CN(C)C1=O [Compound 1025] ([NMeA]I[Sar][Sar][NMeCha][Sar][hPhe(3-Cl-4-CF3)][dNMeD](N(CH2CH2)2CF2)[Ac5c][NMeV][NMeD]-Piperidide; lactam N-11)	4.3	> 500
CC[C@H](C)[C@@H]1NC(=O)[C@H](C)N(C)C(=O)C[C@@H](C(=O)N2CCCCC2)N(C)C(=O)[C@H](C(C)C)N(C)C(=O)C(C)(C)N(C)C(=O)[C@@H]2CCCN2C(=O)[C@H](CCc2ccc(C(F)(F)F)c(Cl)c2)NC(=O)CN(C)C(=O)[C@H](CC2CCCCC2)N(C)C(=O)[C@@H]2CCN2C(=O)[C@H](C)N(C)C1=O [Compound 1034] ([NMeA]I[NMeA][Aze][NMeCha][Sar][hPhe(3-Cl-4-CF3)]P[NMeAib][NMeV][NMeD]-Piperidide; lactam N-11)	1.7	> 500
CC[C@H](C)[C@@H]1NC(=O)[C@H](CCC(C)C)N(C)C(=O)C[C@@H](C(=O)N(C)C)N(C)C(=O)[C@H]([C@@H](C)CC)N(C)C(=O)C2(CCCC2)NC(=O)[C@@H]2CCCN2C(=O)[C@H](CCc2ccc(C(F)(F)F)c(Cl)c2)NC(=O)CN(C)C(=O)[C@H](Cc2ccc(C)cc2)N(C)C(=O)[C@@H]2CCN2C(=O)[C@H](C)N(C)C1=O [Compound 1042] ([NMehLeu]I[NMeA][Aze][NMePhe(4-Me)][Sar][hPhe(3-Cl-4-CF3)]P[Ac5c][NMeI][NMeD]-NMe2; lactam N-11)	0.72	≤ 20
CC[C@H](C)[C@@H]1NC(=O)[C@H](CC(C)C)N(C)C(=O)C[C@@H](C(=O)N2CCCCC2)N(C)C(=O)[C@H](C2CCCCC2)N(C)C(=O)C2(CCCC2)NC(=O)[C@H](C)N(CC)C(=O)[C@H](CCc2ccc(C(F)(F)F)c(Cl)c2)NC(=O)CN(C)C(=O)[C@H](CC2CCCCC2)N(C)C(=O)CN(C)C(=O)CN(C)C1=O [Compound 1045] ([NMeL]I[Sar][Sar][NMeCha][Sar][hPhe(3-Cl-4-CF3)][NEtAla][Ac5c][NMeChg][NMeD]-Piperidide; lactam N-11)	6.7	> 500
